Data reported in patent publication US4997852A, “Method and composition for achieving cancer chemopreventive and chemotherapeutic activity” (priority 1989, dated 1991).
Read-outs that look alike come from different tables or passages of the source. Values belong to the compound of their own block, whether it stands above or below them.

Key:
beta-glucuronidase = details: in cells, blood, cited from earlier work
MCF-7 cells [1] = experiment: inhibition of MCF-7 breast cancer cell growth in culture (Example III); format: cell-based, human; details: for inhibition at 0.01 µM / inhibition at 0.1 µM / inhibition at 1 µM / inhibition at 10 µM: Homo sapiens, MCF7, read-out: inhibition of cell growth
Procedure: The MCF-7 cell line was derived from a hormone-dependent metastatic breast cancer. It has retained several characteristics of differentiated mammary epithelium, Soule et al., J. Natl. Cancer Inst. 51:1409-1413 (1973), and the cells contain estrogen receptors. The MCF-7 cell line used was obtained from the OSU Cell Culture Service laboratory, but originated from the Michigan Cancer Foundation, Detroit, Mich. The MCF-7 cells were seeded at 1×10^3 cells/cm^2 in 35 mm wells containing MEM (Earle base medium) supplemented with MEM non-essential amino acids (1.0 mM), L-glutamic acid (2.0 mM), penicillin and streptomycin (100 ug/ml) and fetal calf serum (10%) as described in Ueda et al., Cancer 46:2203-2206, (1980). The cells are maintained at 37° C. in a humidified atmosphere of 5% CO2 /20% O2 with the growth medium replaced twice a week. The retinoids were dissolved in ethanol and added to the culture medium starting 24 hrs. after seeding. […] Glucarate concentrations varied from 10^-5 to 10^-8 M. Cell counts were done with a Coulter counter and viability of the cells was determined by the trypan blue exclusion method and also by their ability to resume growth after removal of inhibitory agents. Cytotoxicity was evaluated by exposing the MCF-7 cells to equimolar concentrations of the agents and examining viability after 6 days of treatment. All experiments were done in triplicate.
In this experiment series glucarate as the soluble potassium salt and 13-cis-RA were evaluated, alone and in combination, for their ability to inhibit the growth of MCF-7 breast cancer cells in culture.
The log transformed dose refers to the level in μM added to the medium as was varied from […] (0.01) μM to 10^-1 μM. The retinoid vehicle, ethanol, was added to all cultures and all values have been corrected for its slight inhibitory effect (7%).

MCF-7 cells [2] = experiment: growth of MCF-7 cells in GL/HPR-containing media (Table II); format: cell-based, human; details: 5 days
Description: The values shown are the mean +/- ISE for three experiments counted in triplicates. The numbers in parenthesis indicate the number of free floating (mostly non viable) cells in the media.

[3] = GL itself; cited from earlier work
[4] = tested on: chemical induction of tumors in rodent skin, mammary glands, lung and liver; details: cited from earlier work
MCF-7 cells [5] = experiment: growth of human breast cancer cell line MCF-7, 7 days; format: cell-based; details: MCF7, 168 h, 0.1 μM HPR, within 7 days, read-out: growth, % of the control
Procedure: When higher doses (2 mmol/kg diet) of HPR were used, growth arrest was followed within 5 to 10 days by 30% regression of the DMBA-induced mammary tumors. Also, HPR (0.1μM) inhibited the […] growth of the human breast cancer cell line (MCF-7) to 50% of the control within 7 days.

[6] = weight gain of rats on CGT and HPR diets (FIG. 4); format: in vivo, female Sprague Dawley rats; details: prolonged feeding of diets containing CGT and HPR
rat mammary tumors = experiment: rat mammary tumor chemoprevention and shrinkage, effective dietary levels; format: in vivo; details: for dietary level when used individually: alone
[7] = tested on: DMBA-induced mammary tumors; experiment: chemoprevention of DMBA-induced rat mammary carcinogenesis (Example II); format: in vivo, female Sprague Dawley rats
Procedure: (§1) The 13-cis-RA was dissolved in a vehicle consisting of ethanol:tricaprylin:1:4 (v/v) and 4% w/v α-tochopherol. The mixture was added to the meal at the rate of 25 ml/2 kg then stored in the dark at -20° C. […] The same amount of vehicle was also added to the control diet and to the diets containing glucarate. Beginning 5 weeks post DMBA treatment, the rats were examined (palpated) twice every week for mammary tumors. They were also weighed once weekly throughout the 20 week period of the experiment.

[8] = weights of rats on diets (Example II, Table III); details: CGT 2%, RA 1.0 mmol/kg diet
Procedure: as §1

[9] = tested on: 7,12-dimethylbenz(a)anthracene-induced mammary tumors; experiment: DMBA-induced mammary tumor formation in female Sprague Dawley rats (Example I); format: in vivo; details: 1.0% CGT
[10] = CGT-supplemented diet vs normal chow diet; cited from earlier work
[11] = tested on: 7,12-dimethylbenz(a)anthracene-induced mammary tumorigenesis; details: cited from earlier work

Compound: 2,4-di-0-acetyl-D-glucaro-1-lactone
inhibition of beta-glucuronidase (beta-glucuronidase; urine, intestine and liver): effective as inhibitors of beta-glucuronidase

Compound: O=C(O)[C@@H](O)[C@@H](O)[C@H](O)[C@@H](O)C(=O)[O-].[K+] [GT, potassium hydrogen glucarate]
increase in inhibition of growth as a function of glucarate concentration (MCF-7 cells [1]; 1000-fold range of glucarate, at 13-cis-RA 0.0, 0.1 and 1.0 μM): 7-25%
inhibition at 0.01 µM (MCF-7 cells [1]): 0%
inhibition at 0.1 µM (MCF-7 cells [1]): 6%
inhibition at 1 µM (MCF-7 cells [1]): 6%
inhibition at 10 µM (MCF-7 cells [1]): 11%
inhibition of beta-glucuronidase (beta-glucuronidase; urine, intestine and liver): effective as inhibitors of beta-glucuronidase

Compound: O=C(O)[C@@H](O)[C@H]1OC(=O)[C@H](O)[C@H]1O [GL, D-glucaro-1,4-lactone]
inhibition of beta-glucuronidase (beta-glucuronidase; urine and intestine, 4-lactone): potent beta-glucuronidase inhibitor
inhibition of beta-glucuronidase (beta-glucuronidase; urine and intestine): potent inhibitor of beta-glucuronidase
No. of viable cells (MCF-7 cells [2]; GL 10^-4 M, control 60400 ± 2147): 49480 ± 3160
activity at 1000 µM (MCF-7 cells [2]; Homo sapiens, MCF7, 120 h, GL 10^-3 M, parenthesised, control 11, read-out: free floating cells, % of control): 7%
viability at 1000 µM (MCF-7 cells [2]; Homo sapiens, MCF7, 120 h, GL 10^-3 M, read-out: viable cells, % of control): 54 ± 3%
activity at 100 µM (MCF-7 cells [2]; Homo sapiens, MCF7, 120 h, GL 10^-4 M, parenthesised, control 11, read-out: free floating cells, % of control): 6%
viability at 100 µM (MCF-7 cells [2]; Homo sapiens, MCF7, 120 h, GL 10^-4 M, read-out: viable cells, % of control): 82 ± 5%
absorption and clearance from the body [3]: too rapidly absorbed and cleared from the body

Compound: O=C(O)[C@H](O)[C@@H](O)[C@H](O)[C@H](O)CO [calcium gluconate, reference compound]
effect on tumor induction ([4]; equimolar calcium): no effect

weight gain of rats [6]: did not affect weight gain
Compound: CC1=C(/C=C/C(C)=C/C=C/C(C)=C/C(=O)Nc2ccc(O)cc2)C(C)(C)CCC1 [HPR, N-(4-hydroxyphenyl)retinamide, reference compound]
activity at 0.1 µM (MCF-7 cells [5]): 50%
dietary level when used individually (rat mammary tumors): 2.00 mmol/kg
minimum dosage consistent with maximum inhibition of carcinogenesis (rat mammary tumors; used alone): 1.0 to 1.5 mmol/kg
activity at 0.05 µM (MCF-7 cells [2]; Homo sapiens, MCF7, 120 h, HPR 5 × 10^-8 M, parenthesised, control 11, read-out: free floating cells, % of control): 7%
viability at 0.05 µM (MCF-7 cells [2]; Homo sapiens, MCF7, 120 h, HPR 5 × 10^-8 M, read-out: viable cells, % of control): 56 ± 4%

Compound: CC1=C(/C=C/C(C)=C/C=C/C(C)=C\C(=O)O)C(C)(C)CCC1 [13-cis-RA, 13-cis-retinoic acid, reference compound]
inhibition at 0.01 µM (MCF-7 cells [1]): 2%
inhibition at 0.1 µM (MCF-7 cells [1]): 9.2%
inhibition at 1 µM (MCF-7 cells [1]): 12%
inhibition at 10 µM (MCF-7 cells [1]): 52.2%
inhibitory activity of retinoid alone (MCF-7 cells [1]; concentrations above 1.0 μM): significant inhibitory activity
effect on tumor incidence over controls ([7]; 1.0 mmol/kg diet 13-cis-RA (group III)): slight, but insignificant, enhancement of tumor incidence

Compound: O=C([O-])[C@@H](O)[C@@H](O)[C@H](O)[C@@H](O)C(=O)[O-].[Ca+2] [CGT, calcium glucarate]
Weights of rats on diets ([8]; 0 weeks on diet, control 177.2 +/-10.9): 182.2 +/-8.8 gm
Weights of rats on diets ([8]; 5 weeks on diet, control 218.3 +/-16.9): 224.8 +/-11.6 gm
Weights of rats on diets ([8]; 17 weeks on diet, control 247.0 +/-32.2): 250.3 +/-14.2 gm
inhibition of tumors/rat [9]: 9%
weight gain of rats [6]: did not affect weight gain
inhibition of beta-glucuronidase (beta-glucuronidase; urine, intestine and liver): effective as inhibitors of beta-glucuronidase
dietary level when used individually (rat mammary tumors): 128 mmol/kg
effect on tumor incidence compared to control group ([7]; 2% CGT, 64 mmol/kg diet (group II)): did not show any effect on tumor incidence
inhibition of chemical induction of tumors ([4]; dietary, rodent skin, mammary glands, lung, liver): 50-70%
food quantity and weight gain [10]: identical to those on the normal chow diet
tumor induction, % of that in controls ([11]; 4% CGT diet, by 28 weeks): 30%
tumor regression ([11]; chow diet supplemented with CGT): some tumors on the chow diet supplemented with CGT underwent regression
